Where a chain is given by its changes, count along the chain named.

In experiment [1] the target is T1, Nluc-A1R (adenosine A1 receptor) (Homo sapiens, UniProt P30542).
T1 sequence (P30542 1-326): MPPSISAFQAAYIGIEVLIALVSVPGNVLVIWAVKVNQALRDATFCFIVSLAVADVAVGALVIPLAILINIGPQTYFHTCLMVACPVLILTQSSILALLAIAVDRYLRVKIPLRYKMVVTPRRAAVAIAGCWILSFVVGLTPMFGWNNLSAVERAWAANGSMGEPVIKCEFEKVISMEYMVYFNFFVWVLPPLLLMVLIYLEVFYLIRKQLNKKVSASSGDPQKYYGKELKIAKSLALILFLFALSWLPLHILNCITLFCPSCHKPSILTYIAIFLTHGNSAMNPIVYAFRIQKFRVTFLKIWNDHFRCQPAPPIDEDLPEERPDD
As to the kind of experiment: NanoBRET competition binding, live HEK […] cells. The format is cell-based. (In general: In BRET a luciferase serves as donor, and the signal depends on an acceptor being close.)

Experiment [2] deals with T2, Nluc-A1R (adenosine A1 receptor) (Homo sapiens, UniProt P30542, L253A).
T2 sequence (P30542 1-326 L253A): T1 sequence (P30542 1-326) with L253A
As to the kind of experiment: NanoBRET competition binding, live HEK […] cells. The experiment is classed as cell-based.

For experiment [3], the target named is T3, Nluc-A1R (adenosine A1 receptor) L258A (Homo sapiens, UniProt P30542, L258A).
T3 sequence (P30542 1-326 L258A): T1 sequence (P30542 1-326) with L258A
As to the kind of experiment: cell-based. More on the design: species or system HEK 293.

Experiment [4] deals with T4, Nluc-A1R (adenosine A1 receptor) H264A (Homo sapiens, UniProt P30542, H264A).
T4 sequence (P30542 1-326 H264A): T1 sequence (P30542 1-326) with H264A
As to the kind of experiment: cell-based. Details: species or system HEK 293.

Experiment [5] deals with T5, Nluc-A1R (adenosine A1 receptor) Q9A (Homo sapiens, UniProt P30542, Q9A).
T5 sequence (P30542 1-326 Q9A): T1 sequence (P30542 1-326) with Q9A
As to the kind of experiment: cell-based. More on the design: species or system HEK 293.

Experiment [6] has as its target T6, Nluc-A1R (adenosine A1 receptor) N148A (Homo sapiens, UniProt P30542, N148A).
T6 sequence (P30542 1-326 N148A): T1 sequence (P30542 1-326) with N148A
Briefly: cell-based. More on the design: species or system HEK 293.

Experiment [7] addresses T7, Nluc-A1R (adenosine A1 receptor) K265A (Homo sapiens, UniProt P30542, K265A).
T7 sequence (P30542 1-326 K265A): T1 sequence (P30542 1-326) with K265A
As to the kind of experiment: cell-based. Details: species or system HEK 293.

Broadly, the Ki is a measure of affinity in units of concentration, obtained from inhibition or displacement. Low values mean a stronger hold on the target, high ones a looser hold on the target. Consider `OC[C@H]1O[C@@H](n2cnc3c(N[C@@H]4CCC[C@H]4O)ncnc32)[C@H](O)[C@@H]1O` [compound 6, HOCPA], for which the Ki in experiment [1] was 427 nM; in experiment [2] it was 3240 nM; in experiment [3], 1410 nM; in experiment [4], 955 nM; in experiment [5], 1950 nM; in experiment [6] it was 708 nM. This compound showed an inhibitory constant (Ki) in experiment [7] of 977 nM.

Values taken from paper doi:10.1101/2020.10.22.350827v1 (biorxiv, 2020).
